# Laboratory results taken from patent US11053204B2, “Pyrimidinyloxy benzene derivatives as herbicides” (FMC Corporation, priority 2015, dated 2021).
# How the values were obtained:
# Assay type in all cases: in vivo
# [1] = system: ragweed (common ragweed, Ambrosia elatior); test: Test C postemergence, plant response rating; settings: Ambrosia artemisiifolia, post-emergence
# Method in brief: (§1)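 Both timings shared one formulation, a non-phytotoxic solvent mixture with surfactant, and a greenhouse period of 13 to 15 d. Preemergence used seeded loam/sand or silt loam soil, postemergence used 2 to 18 cm plants; visual ratings ran from 0 (no effect) to 100 (complete control).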
# [2] = system: wheat (winter wheat, Triticum aestivum); test: Test C postemergence, plant response rating; settings: Triticum aestivum, post-emergence
# Method in brief: as §1
# [3] = system: barnyardgrass (Echinochloa crus-galli); test: Test C postemergence, plant response rating; settings: Echinochloa crus-galli, post-emergence
# Method in brief: as §1
# [4] = system: chickweed (common chickweed, Stellaria media); test: Test C postemergence, plant response rating; settings: Stellaria media, post-emergence
# Method in brief: as §1
# [5] = system: blackgrass (Alopecurus myosuroides); test: Test C postemergence, plant response rating; settings: Alopecurus myosuroides, post-emergence
# Method in brief: as §1
# [6] = system: nutsedge, yellow (yellow nutsedge, Cyperus esculentus); test: Test C postemergence, plant response rating; settings: Cyperus, post-emergence
# Method in brief: as §1
# [7] = system: velvetleaf (Abutilon theophrasti); test: Test C postemergence, plant response rating; settings: Abutilon theophrasti, post-emergence
# Method in brief: as §1
# [8] = system: morningglory (Ipomoea coccinea); test: Test C postemergence, plant response rating; settings: Ipomoea, post-emergence
# Method in brief: as §1
# [9] = system: oat, wild (wild oat Avena fatua); test: Test C postemergence, plant response rating; settings: Avena fatua, post-emergence
# Method in brief: as §1
# [10] = system: ryegrass, Italian (Italian ryegrass, Lolium multiflorum); test: Test C postemergence, plant response rating; settings: Lolium multiflorum, post-emergence
# Method in brief: as §1
# [11] = system: lambsquarters (Chenopodium album); test: Test C postemergence, plant response rating; settings: Chenopodium album, post-emergence
# Method in brief: as §1
# [12] = system: galium (catchweed bedstraw, Galium aparine); test: Test C preemergence, plant response rating
# [13] = system: barnyardgrass (Echinochloa crus-galli); test: Test C preemergence, plant response rating; settings: Echinochloa crus-galli, pre-emergence, Preemergence
# [14] = system: pigweed (Amaranthus retroflexus); test: Test C preemergence, plant response rating; settings: Preemergence
# [15] = 62 g ai/ha, scale 0 to 100 (0 no effect, 100 complete control)
# [16] = 125 g ai/ha, scale 0 to 100 (0 no effect, 100 complete control)
structure (smiles),measurement,setting,value
"C=CCCOC(=O)c1c(Br)cccc1Oc1ncc(Cl)cn1 [Compound 21, 3-buten-1-yl 2-bromo-6-[(5-chloro-2-pyrimidinyl)oxy]benzoate]",pest or weed control at 16 g/ha,"[1]; 16 g ai/ha, scale 0 to 100",10%
same,pest or weed control at 31 g/ha,"[1]; 31 g ai/ha, scale 0 to 100",10%
same,pest or weed control at 62 g/ha,[1]; [15],45%
same,pest or weed control at 125 g/ha,[1]; [16],55%
same,plant injury at 16 g/ha,"[2]; 16 g ai/ha, scale 0 to 100",0%
same,plant injury at 31 g/ha,"[2]; 31 g ai/ha, scale 0 to 100",0%
same,plant injury at 62 g/ha,"[2]; 62 g ai/ha, scale 0 to 100 (0 no effect, 100 complete control), read-out: Wheat plant response rating",0%
same,plant injury at 125 g/ha,[2]; [16],0%
same,pest or weed control at 16 g/ha,"[3]; 16 g ai/ha, scale 0 to 100",10%
same,pest or weed control at 31 g/ha,"[3]; 31 g ai/ha, scale 0 to 100",10%
same,pest or weed control at 62 g/ha,[3]; [15],20%
same,pest or weed control at 125 g/ha,[3]; [16],20%
same,pest or weed control at 16 g/ha,"[4]; 16 g ai/ha, scale 0 to 100",40%
same,pest or weed control at 31 g/ha,"[4]; 31 g ai/ha, scale 0 to 100",50%
same,pest or weed control at 62 g/ha,[4]; [15],50%
same,pest or weed control at 125 g/ha,[4]; [16],80%
same,pest or weed control at 16 g/ha,"[5]; 16 g ai/ha, scale 0 to 100",0%
same,pest or weed control at 31 g/ha,"[5]; 31 g ai/ha, scale 0 to 100",0%
same,pest or weed control at 62 g/ha,[5]; [15],5%
same,pest or weed control at 125 g/ha,[5]; [16],5%
same,pest or weed control at 16 g/ha,"[6]; 16 g ai/ha, scale 0 to 100",0%
same,pest or weed control at 31 g/ha,"[6]; 31 g ai/ha, scale 0 to 100",0%
same,pest or weed control at 62 g/ha,[6]; [15],5%
same,pest or weed control at 125 g/ha,[6]; [16],10%
same,pest or weed control at 16 g/ha,"[7]; 16 g ai/ha, scale 0 to 100",40%
same,pest or weed control at 31 g/ha,"[7]; 31 g ai/ha, scale 0 to 100",60%
same,pest or weed control at 62 g/ha,"[7]; 62 g ai/ha, scale 0 to 100 (0 no effect, 100 complete control), read-out: Velvetleaf plant response rating",60%
same,pest or weed control at 125 g/ha,[7]; [16],70%
same,pest or weed control at 16 g/ha,"[8]; 16 g ai/ha, scale 0 to 100",10%
same,pest or weed control at 31 g/ha,"[8]; 31 g ai/ha, scale 0 to 100",25%
same,pest or weed control at 62 g/ha,[8]; [15],40%
same,pest or weed control at 125 g/ha,[8]; [16],70%
same,pest or weed control at 16 g/ha,"[9]; 16 g ai/ha, scale 0 to 100",0%
same,pest or weed control at 31 g/ha,"[9]; 31 g ai/ha, scale 0 to 100",0%
same,pest or weed control at 62 g/ha,[9]; [15],5%
same,pest or weed control at 125 g/ha,[9]; [16],5%
same,pest or weed control at 16 g/ha,"[10]; 16 g ai/ha, scale 0 to 100",0%
same,pest or weed control at 31 g/ha,"[10]; 31 g ai/ha, scale 0 to 100",0%
same,pest or weed control at 62 g/ha,[10]; [15],0%
same,pest or weed control at 125 g/ha,[10]; [16],15%
same,pest or weed control at 16 g/ha,"[11]; 16 g ai/ha, scale 0 to 100",65%
same,pest or weed control at 31 g/ha,"[11]; 31 g ai/ha, scale 0 to 100",60%
same,pest or weed control at 62 g/ha,[11]; [15],65%
same,pest or weed control at 125 g/ha,[11]; [16],85%
same,"Plant response rating, Galium","[12]; 31 g ai/ha, scale 0 to 100",0
same,"Plant response rating, Galium","[12]; 62 g ai/ha, scale of 0 to 100",5
same,"Plant response rating, Galium","[12]; 125 g ai/ha, scale of 0 to 100",100
same,pest or weed control at 62 g/ha,"[13]; 62 g ai/ha, scale of 0 to 100",90%
same,pest or weed control at 125 g/ha,"[13]; 125 g ai/ha, scale of 0 to 100",98%
same,pest or weed control at 16 g/ha,"[13]; 16 g ai/ha, scale 0 to 100",10%
same,pest or weed control at 31 g/ha,"[13]; 31 g ai/ha, scale 0 to 100",55%
same,"Plant response rating, Pigweed","[14]; 125 g ai/ha, scale of 0 to 100",100
same,"Plant response rating, Pigweed","[14]; 16 g ai/ha, scale 0 to 100",5
same,"Plant response rating, Pigweed","[14]; 31 g ai/ha, scale 0 to 100",55
same,"Plant response rating, Pigweed","[14]; 62 g ai/ha, scale 0 to 100",98
